These results are taken from patent publication US11780805B2, “Carbamoyl phenylalaninol compounds and uses thereof” (AXSOME MALTA LTD., priority 2016, dated 2023).

For experiment [1], the target named is vesicular monoamine transporter (VMAT2) (Homo sapiens, UniProt Q05940). As to the kind of experiment: Competitive radioligand binding assay, VMAT2. The note with it: compound at 10 μM; radioligand tetrabenazine; cell membrane fractions; read-out: % Inhibition of Binding at Each Transporter or Receptor Target, VMAT2. As for the experimental part:
(§1) Compound 2 was tested for pharmacological activity in comparison to APC. Eight binding assays were carried out to provide a binding profile for each compound, including binding to dopamine transporter (DAT), norepinephrine transporter (NET), serotonin (5-HT) transporter (SERT), alpha2A adrenergic receptor (Alpha2A), alpha2C adrenergic receptor (Alpha2C), D2S dopamine receptor (D2S), D2L, dopamine receptor (D2L), and vesicular monoamine transporter (VMAT2). Competitive binding assays using a radiolabeled ligand were carried out with each compound at 10 μM. The radioligand for each target was as follows: DAT—BTCP, NET—protriptyline, SERT—imipramine Alpha2A—yohimbine, Alpha2C—yohimbine, D2S—7-OH-DPAT, D2L—butaclamol, VMAT2—tetrabenazine. The source of the receptors and transporters were prepared cell membrane fractions.

Experiment [2] has as its target T1, alpha2C adrenergic receptor (Alpha2C) (Homo sapiens, UniProt P18825).
T1 sequence (P18825 1-462): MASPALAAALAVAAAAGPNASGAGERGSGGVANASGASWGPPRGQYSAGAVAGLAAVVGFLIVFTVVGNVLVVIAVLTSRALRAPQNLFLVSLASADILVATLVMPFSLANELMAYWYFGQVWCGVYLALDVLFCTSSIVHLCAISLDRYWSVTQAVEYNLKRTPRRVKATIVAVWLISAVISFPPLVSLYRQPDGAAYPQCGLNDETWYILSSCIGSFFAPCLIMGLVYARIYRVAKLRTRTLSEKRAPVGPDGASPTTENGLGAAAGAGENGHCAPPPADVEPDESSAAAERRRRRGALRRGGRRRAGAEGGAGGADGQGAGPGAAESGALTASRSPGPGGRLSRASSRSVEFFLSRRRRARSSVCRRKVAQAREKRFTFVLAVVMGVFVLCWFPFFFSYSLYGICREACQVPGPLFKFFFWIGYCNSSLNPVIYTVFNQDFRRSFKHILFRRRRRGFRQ
As to the kind of experiment: Competitive radioligand binding assay, Alpha2C. The note with it: compound at 10 μM; radioligand yohimbine; cell membrane fractions; read-out: % Inhibition of Binding at Each Transporter or Receptor Target, Alpha2C. As for the experimental part: as §1

For experiment [3], the target named is dopamine transporter (DAT) (Homo sapiens, UniProt Q01959). The experiment can be described thus: Competitive radioligand binding assay, DAT. The note with it: compound at 10 μM; radioligand BTCP; cell membrane fractions; read-out: % Inhibition of Binding at Each Transporter or Receptor Target, DAT. On the procedure:
as §1

Experiment [4] concerns the target T2, alpha2A adrenergic receptor (Alpha2A) (Homo sapiens, UniProt P08913).
T2 sequence (P08913 1-465): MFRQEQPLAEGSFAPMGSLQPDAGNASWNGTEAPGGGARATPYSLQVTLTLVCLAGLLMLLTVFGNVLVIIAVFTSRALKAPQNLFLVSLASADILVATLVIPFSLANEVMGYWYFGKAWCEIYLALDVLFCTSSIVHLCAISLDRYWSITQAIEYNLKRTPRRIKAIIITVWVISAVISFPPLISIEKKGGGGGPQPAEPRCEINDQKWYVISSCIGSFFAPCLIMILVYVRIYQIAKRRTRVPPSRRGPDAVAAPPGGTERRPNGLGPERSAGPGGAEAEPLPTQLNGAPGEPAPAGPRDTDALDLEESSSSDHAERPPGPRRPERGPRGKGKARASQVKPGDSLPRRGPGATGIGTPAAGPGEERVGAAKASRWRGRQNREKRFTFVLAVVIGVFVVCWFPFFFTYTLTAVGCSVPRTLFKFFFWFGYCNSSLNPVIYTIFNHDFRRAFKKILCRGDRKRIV
The experiment can be described thus: Competitive radioligand binding assay, Alpha2A. To be noted: compound at 10 μM; radioligand yohimbine; cell membrane fractions; read-out: % Inhibition of Binding at Each Transporter or Receptor Target, Alpha2A. On the procedure:
as §1

The target of experiment [5] is norepinephrine transporter (NET) (Homo sapiens, UniProt P23975). As to the kind of experiment: Competitive radioligand binding assay, NET. To be noted: compound at 10 μM; radioligand protriptyline; cell membrane fractions; read-out: % Inhibition of Binding at Each Transporter or Receptor Target, NET. As for the experimental part: as §1
The target in experiment [6] is D2S dopamine receptor (D2S) (Homo sapiens, UniProt P14416). As to the kind of experiment: Competitive radioligand binding assay, D2S. The note with it: compound at 10 μM; radioligand 7-OH-DPAT; cell membrane fractions; read-out: % Inhibition of Binding at Each Transporter or Receptor Target, D2S. As for the experimental part: as §1
Experiment [7] concerns the target serotonin (5-HT) transporter (SERT) (Homo sapiens, UniProt P31645). The experiment can be described thus: Competitive radioligand binding assay, SERT. To be noted: compound at 10 μM; radioligand imipramine; cell membrane fractions; read-out: % Inhibition of Binding at Each Transporter or Receptor Target, SERT. On the procedure: as §1
Experiment [8] deals with D2L, dopamine receptor (D2L) (Homo sapiens, UniProt P14416). As to the kind of experiment: Competitive radioligand binding assay, D2L. To be noted: compound at 10 μM; radioligand butaclamol; cell membrane fractions; read-out: % Inhibition of Binding at Each Transporter or Receptor Target, D2L. As for the experimental part:
as §1

Sequence of norepinephrine transporter (NET) (P23975 whole entry, species assumed): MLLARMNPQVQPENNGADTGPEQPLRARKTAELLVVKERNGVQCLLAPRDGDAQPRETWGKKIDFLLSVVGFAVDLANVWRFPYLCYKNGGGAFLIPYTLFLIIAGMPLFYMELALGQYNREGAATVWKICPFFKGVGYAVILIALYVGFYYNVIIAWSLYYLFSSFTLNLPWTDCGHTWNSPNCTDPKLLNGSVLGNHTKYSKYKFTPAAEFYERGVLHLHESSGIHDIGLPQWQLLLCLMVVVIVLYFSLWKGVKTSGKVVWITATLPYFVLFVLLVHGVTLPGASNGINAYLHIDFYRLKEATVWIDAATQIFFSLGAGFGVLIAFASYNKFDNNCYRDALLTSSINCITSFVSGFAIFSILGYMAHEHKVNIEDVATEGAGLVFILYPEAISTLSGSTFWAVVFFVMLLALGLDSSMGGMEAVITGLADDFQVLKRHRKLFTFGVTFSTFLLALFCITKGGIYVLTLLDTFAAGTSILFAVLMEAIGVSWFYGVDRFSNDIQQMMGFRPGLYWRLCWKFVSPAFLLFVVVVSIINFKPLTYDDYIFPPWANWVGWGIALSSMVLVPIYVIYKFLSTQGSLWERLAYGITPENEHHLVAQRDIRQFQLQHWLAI
Sequence of dopamine transporter (DAT) (Q01959 whole entry, species assumed): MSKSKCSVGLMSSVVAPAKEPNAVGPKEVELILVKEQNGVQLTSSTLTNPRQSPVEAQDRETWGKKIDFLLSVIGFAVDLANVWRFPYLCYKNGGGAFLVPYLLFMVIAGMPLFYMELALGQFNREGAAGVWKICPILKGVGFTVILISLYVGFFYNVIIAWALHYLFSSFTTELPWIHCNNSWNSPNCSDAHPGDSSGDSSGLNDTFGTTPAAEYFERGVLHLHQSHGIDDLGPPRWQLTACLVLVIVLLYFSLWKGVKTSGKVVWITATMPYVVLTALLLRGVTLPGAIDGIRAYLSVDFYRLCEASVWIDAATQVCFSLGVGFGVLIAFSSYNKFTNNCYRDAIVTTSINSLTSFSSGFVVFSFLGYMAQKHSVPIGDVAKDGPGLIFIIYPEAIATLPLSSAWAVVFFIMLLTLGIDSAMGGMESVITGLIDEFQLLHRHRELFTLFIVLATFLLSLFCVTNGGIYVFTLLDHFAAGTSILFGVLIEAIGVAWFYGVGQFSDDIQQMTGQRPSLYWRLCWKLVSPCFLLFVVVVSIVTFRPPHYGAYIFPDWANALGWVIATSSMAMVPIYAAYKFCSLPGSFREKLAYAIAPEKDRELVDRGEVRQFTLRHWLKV
Sequence of D2L, dopamine receptor (D2L) (P14416 whole entry): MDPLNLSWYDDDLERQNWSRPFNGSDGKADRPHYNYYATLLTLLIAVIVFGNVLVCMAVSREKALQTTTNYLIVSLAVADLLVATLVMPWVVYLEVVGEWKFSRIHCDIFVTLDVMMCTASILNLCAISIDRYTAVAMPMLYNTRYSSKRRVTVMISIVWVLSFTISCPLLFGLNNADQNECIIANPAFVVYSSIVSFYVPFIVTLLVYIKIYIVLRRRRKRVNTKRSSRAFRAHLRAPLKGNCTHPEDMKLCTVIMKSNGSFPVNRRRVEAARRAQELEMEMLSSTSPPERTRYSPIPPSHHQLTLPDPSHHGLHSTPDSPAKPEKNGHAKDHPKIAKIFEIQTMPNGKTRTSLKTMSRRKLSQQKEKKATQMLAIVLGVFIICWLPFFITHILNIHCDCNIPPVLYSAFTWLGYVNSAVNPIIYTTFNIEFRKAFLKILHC
Sequence of serotonin (5-HT) transporter (SERT) (P31645 whole entry, species assumed): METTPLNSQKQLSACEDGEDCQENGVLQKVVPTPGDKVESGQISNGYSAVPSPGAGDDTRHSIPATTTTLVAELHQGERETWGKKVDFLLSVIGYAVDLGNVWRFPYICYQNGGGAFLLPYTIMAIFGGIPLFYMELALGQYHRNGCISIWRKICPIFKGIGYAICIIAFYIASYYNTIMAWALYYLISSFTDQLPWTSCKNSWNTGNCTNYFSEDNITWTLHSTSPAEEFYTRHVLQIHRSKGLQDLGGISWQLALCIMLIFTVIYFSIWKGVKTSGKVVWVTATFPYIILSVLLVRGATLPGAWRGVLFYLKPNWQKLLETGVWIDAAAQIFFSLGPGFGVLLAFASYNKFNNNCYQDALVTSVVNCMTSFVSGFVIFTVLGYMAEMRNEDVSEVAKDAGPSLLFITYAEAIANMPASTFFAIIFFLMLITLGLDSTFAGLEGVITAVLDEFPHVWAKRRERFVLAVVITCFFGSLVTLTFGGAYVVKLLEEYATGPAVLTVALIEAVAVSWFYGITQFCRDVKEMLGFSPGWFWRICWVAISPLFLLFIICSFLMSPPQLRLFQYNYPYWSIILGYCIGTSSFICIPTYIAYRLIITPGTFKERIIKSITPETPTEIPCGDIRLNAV
Sequence of vesicular monoamine transporter (VMAT2) (Q05940 whole entry, species assumed): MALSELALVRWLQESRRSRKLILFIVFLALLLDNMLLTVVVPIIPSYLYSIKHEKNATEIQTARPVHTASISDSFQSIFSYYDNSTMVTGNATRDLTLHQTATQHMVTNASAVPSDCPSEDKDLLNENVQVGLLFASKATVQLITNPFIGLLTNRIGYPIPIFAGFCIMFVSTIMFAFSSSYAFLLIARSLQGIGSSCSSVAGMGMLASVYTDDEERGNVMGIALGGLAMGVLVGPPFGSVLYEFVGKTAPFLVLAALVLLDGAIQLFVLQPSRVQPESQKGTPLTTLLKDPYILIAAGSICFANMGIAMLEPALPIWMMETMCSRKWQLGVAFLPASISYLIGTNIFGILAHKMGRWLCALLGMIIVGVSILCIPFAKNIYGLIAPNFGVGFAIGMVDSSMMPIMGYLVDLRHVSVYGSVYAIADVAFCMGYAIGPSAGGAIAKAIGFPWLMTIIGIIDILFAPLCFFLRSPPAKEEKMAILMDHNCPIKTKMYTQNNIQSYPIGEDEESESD
Sequence of D2S dopamine receptor (D2S) (P14416 1-414 isoform P14416-2): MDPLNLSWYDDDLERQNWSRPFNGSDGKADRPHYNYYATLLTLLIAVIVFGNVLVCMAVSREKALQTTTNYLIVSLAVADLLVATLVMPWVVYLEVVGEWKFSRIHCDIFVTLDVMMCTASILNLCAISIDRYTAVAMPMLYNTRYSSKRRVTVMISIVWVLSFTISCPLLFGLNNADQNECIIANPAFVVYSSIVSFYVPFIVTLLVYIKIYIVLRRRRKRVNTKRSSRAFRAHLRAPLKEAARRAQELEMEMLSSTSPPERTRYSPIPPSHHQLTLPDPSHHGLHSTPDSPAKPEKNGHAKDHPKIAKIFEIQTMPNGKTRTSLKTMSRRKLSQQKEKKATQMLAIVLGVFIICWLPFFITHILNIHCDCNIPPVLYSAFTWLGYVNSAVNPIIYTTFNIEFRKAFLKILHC

As usually defined, the inhibition is the change of the read-out against control, counted positive when it falls. In the case of `NC(=O)OC[C@H](N)Cc1ccccc1` [APC, (R)-2-amino-3-phenylpropyl carbamate], the inhibition at 10 µM in experiment [1] stood at 12%; in experiment [2] it was 7.4%; in experiment [3], 81.4%; in experiment [4], 16.5%; in experiment [5] it was 6.2%; in experiment [6], 18.7%. The inhibition at 10 µM was 4% in experiment [7] and -3.4% in experiment [8].

For the compound `NC(=O)NC(=O)OC[C@H](N)Cc1ccccc1` [Compound 2, D-phenylalaninol allophanate], the inhibition at 10 µM in experiment [1] is -1%; in experiment [2], 52.1%; in experiment [3], 80.6%; in experiment [4] it was 28%; in experiment [5], 2.7%; in experiment [6] it was 11.8%. For the same compound, the inhibition at 10 µM in experiment [7] is 3.4%; in experiment [8] it was -5.5%.
